Assay results from patent US11608323B2 (SYNGENTA LIMITED, priority 2013, dated 2023).

Columns and labels:
Assay type in all cases: in vivo
ECHCG [1] = test: Post-emergence herbicidal activity, glasshouse pot test; settings: Echinochloa crus-galli; application post-emergence; rate 1000 g/Ha; evaluated after 13 days
In short: (§1)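 Pot-grown seedlings sprayed 8 days after sowing with active ingredient in acetone/water (50:50) plus 0.5% Tween 20. Glasshouse at 24/16 °C day/night, 14 h light, 65% humidity, watered twice daily. Damage scored after 13 days on a 0–5 scale (5 = total damage, 0 = none).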

AMARE [2] = test: as above; settings: Amaranthus retroflexus; application post-emergence; rate 1000 g/Ha; evaluated after 13 days
In short: as §1

ALOMY [3] = test: as above; settings: Alopecurus myosuroides; application post-emergence; rate 1000 g/Ha; evaluated after 13 days
In short: as §1

SETFA [4] = test: as above; settings: Setaria faberi; application post-emergence; rate 1000 g/Ha; evaluated after 13 days
In short: as §1

ABUTH [5] = test: as above; settings: Abutilon theophrasti; application post-emergence; rate 1000 g/Ha; evaluated after 13 days
In short: as §1

ZEAMX [6] = test: as above; settings: Zea mays; application post-emergence; rate 1000 g/Ha; evaluated after 13 days
In short: as §1

ECHCG [7] = test: Pre-emergence herbicidal activity, glasshouse pot test; settings: rate 1000 g/Ha, evaluated after 13 days, scale 0-5
In short: (§2)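 Compounds are applied pre-emergence as an aqueous spray, formulated in 50:50 acetone/water containing 0.5% Tween 20, to pots sown one day earlier. Plants grow in a controlled glasshouse and are scored 13 days later for damage from 0 to 5.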

AMARE [8] = test: as above; settings: rate 1000 g/Ha, evaluated after 13 days, scale 0-5
In short: as §2

ALOMY [9] = test: as above; settings: rate 1000 g/Ha, evaluated after 13 days, scale 0-5
In short: as §2

SETFA [10] = test: as above; settings: rate 1000 g/Ha, evaluated after 13 days, scale 0-5
In short: as §2

ABUTH [11] = test: as above; settings: rate 1000 g/Ha, evaluated after 13 days, scale 0-5
In short: as §2

ZEAMX [12] = test: as above; settings: rate 1000 g/Ha, evaluated after 13 days, scale 0-5
In short: as §2

| SMILES | Post-emergence herbicidal activity ECHCG (damage score 0-5) (ECHCG [1]) | Post-emergence herbicidal activity AMARE (damage score 0-5) (AMARE [2]) | Post-emergence herbicidal activity ALOMY (damage score 0-5) (ALOMY [3]) | Post-emergence herbicidal activity SETFA (damage score 0-5) (SETFA [4]) | Post-emergence herbicidal activity ABUTH (damage score 0-5) (ABUTH [5]) | Post-emergence herbicidal activity ZEAMX (damage score 0-5) (ZEAMX [6]) | ECHCG damage score, application pre-emergence (ECHCG [7]) | AMARE damage score, application pre-emergence (AMARE [8]) | ALOMY damage score, application pre-emergence (ALOMY [9]) | SETFA damage score, application pre-emergence (SETFA [10]) | ABUTH damage score, application pre-emergence (ABUTH [11]) | ZEAMX damage score, application pre-emergence (ZEAMX [12]) |
| --- | --- | --- | --- | --- | --- | --- | --- | --- | --- | --- | --- | --- |
| CON1C(=O)N(c2cc(C(F)(F)F)ccn2)C(O)[C@@H]1C (mixture of isomers) [Compound A3, (4R,5S)-4-hydroxy-1-methoxy-5-methyl-3-[4-(trifluoromethyl)-2-pyridyl]imidazolidin-2-one and (4S,5S)-4-hydroxy-1-methoxy-5-methyl-3-[4-(trifluoromethyl)-2-pyridyl]imidazolidin-2-one] | 5 | 5 | 5 | 5 | 5 | 5 | 5 | 5 | 3 | 5 | 4 | 3 |
| CON1C(=O)N(c2cc(C(F)(F)F)ccn2)C(O)[C@H]1C (mixture of isomers) [Compound A4, (4R,5R)-4-hydroxy-1-methoxy-5-methyl-3-[4-(trifluoromethyl)-2-pyridyl]imidazolidin-2-one and (4S,5R)-4-hydroxy-1-methoxy-5-methyl-3-[4-(trifluoromethyl)-2-pyridyl]imidazolidin-2-one] | 5 | 5 | 5 | 5 | 5 | 5 | 5 | 5 | 4 | 5 | 5 | 3 |
| C[C@H]1C(O)N(c2cc(C(F)(F)F)ccn2)C(=O)N1C (mixture of isomers) [Compound A37, (4R,5S)-4-hydroxy-1,5-dimethyl-3-[4-(trifluoromethyl)-2-pyridyl]imidazolidin-2-one and (4S,5S)-4-hydroxy-1,5-dimethyl-3-[4-(trifluoromethyl)-2-pyridyl]imidazolidin-2-one] | 5 | 5 | 5 | 5 | 5 | 4 | 5 | 5 | 4 | 4 | 5 | 3 |
| CCOC1C(O)N(c2cc(C(F)(F)F)ccn2)C(=O)N1C (racemic) [Compound A6, 5-ethoxy-4-hydroxy-1-methyl-3-[4-(trifluoromethyl)-2-pyridyl]imidazolidin-2-one] | 5 | 5 | 5 | 5 | 5 | 2 | 4 | 5 | 4 | 5 | 5 | 2 |
| COCC1C(O)N(c2cc(C(F)(F)F)ccn2)C(=O)N1C (racemic) [Compound A54] | 5 | 5 | 5 | 5 | 5 | 4 | 2 | 5 | 3 | 2 | 5 | 0 |
| CC1C(O)N(c2ccc(Cl)cn2)C(=O)N1C (single isomer, unassigned) [Compound A26] | 1 | 3 | 1 | 1 | 4 | 1 | 4 | 3 | 2 | 4 | 4 | 2 |
| Cc1ccnc(N2C(=O)N(C)C(C)C2O)c1 (single isomer, unassigned) [Compound A27] | 3 | 5 | 3 | 3 | 5 | 3 | 4 | 5 | 3 | 4 | 4 | 3 |
| CCC1C(O)N(c2cc(C(F)(F)F)ccn2)C(=O)N1OC (single isomer, unassigned) [Compound A28] | 5 | 4 | 5 | 5 | 4 | 2 | 4 | 5 | 4 | 5 | 3 | 2 |
| CC1C(O)N(c2cc(C(C)(C)C)ccn2)C(=O)N1C (single isomer, unassigned) [Compound A30] | 5 | 5 | 5 | 5 | 5 | 3 | 5 | 5 | 4 | 5 | 5 | 2 |
| Cc1cnc(N2C(=O)N(C)C(C)C2O)cc1C(F)(F)F (single isomer, unassigned) [Compound A51] | 5 | 5 | 5 | 5 | 5 | 5 | 5 | 5 | 4 | 4 | 5 | 3 |
| CON1C(=O)N(c2cc(C(F)(F)F)c(Br)cn2)C(O)C1C (single isomer, unassigned) [Compound A55] | 5 | 5 | 5 | 5 | 5 | 4 | 4 | 5 | 4 | 4 | 5 | 2 |
| CC(=O)Nc1cnc(N2C(=O)N(C)C(C)C2O)cc1C(F)(F)F (single isomer, unassigned) [Compound A56] | 3 | 5 | 4 | 2 | 5 | 1 | 1 | 5 | 2 | 1 | 5 | 0 |
